Patent publication US20200164026A1, “Intranasal Delivery of Cell Permeant Therapeutics” (The Trustees of Columbia University in the City of New York, priority 2010, published 2020)

Tests used:
[1] = tested on: hippocampal neuronal cultures; assay: Neuronal survival assay, 4-hydroxynonenal (HNE) mediated death; assay type: cell-based, rat; conditions: HNE 3 μM, Pen1-XBIR3 80 nM, 1 day
Excerpt: (Davidson, et al., J Neurosci 24 (45), 10040-10046 (2004)). Upon entry into the cell the disulfide linkage is broken by the reducing environment of the cytoplasm, releasing the peptide cargo and allowing it to act at its target. Functional efficacy of this construct was confirmed using hippocampal neuronal cultures that were subjected to 4-hydroxynonenal (HNE) mediated death, a caspase-9 dependent death. (Rabacchi, et al., Neurobiol Aging 25 (8), 1057-1066 (2004)). […] To ensure that a Pen1-peptide could be delivered to the brain, Pen1 was linked to a FITC-labeled control peptide and delivered to the striatum using convection enhanced delivery (CED). Brains were harvested 24 hr after delivery, sectioned, and imaged. […] Pent-XBIR3 was delivered to the striatum 1 hr prior to tMCAo using ICC. Animals were harvested at 24 hpr and immunostained for caspase-9 and c1-C6. […] Thus, caspase-9 activity was necessary for activation of caspase-6 in neuron soma and processes following a transient ischemic event in rats.
Rat Hippocampal cultures. […]
Neuronal survival assay. […] After 1 day of treatment cells number was quantified as previously described. […] Briefly, the cells were lysed in counting buffer and intact nuclei were counted using a hemocytometer. […]

rats subjected to tMCAo = assay: Intranasal Pen1-XBIR3 prior to tMCAo in rats; immunohistochemistry counts of neurons and processes in the penumbra; assay type: in vivo, rat
Method: Brains were analyzed for expression of activated caspase-6, NF-L, MAP-2, and NeuN at 12 hpr and 24 hpr. […] Therefore, caspase-9 inhibition using this delivery technique reduced caspase-6 activity. […] (Coleman, M., Nat Rev Neurosci 6 (11), 889-898 (2005)). […] Unlike axon density, dendrite levels are unaffected at 12 and 24 hpr (FIG. 4D), which can indicate a slower time-course for dendritic degeneration or a different mechanism of degeneration.
Mouse & Rat Stroke Models. Caspase-6 null (C6^−/−) mice (Jackson Laboratories)^48,49 on C57/B16 background were bred with wild-type C57/B16 mice to generate C6^+/− heterozygotes, hets were bred to generate C6^−/− and wild-type littermates for studies. 2-3 month old male C6^−/− and wild-type littermate mice (23-30 g) as well as adult Wistar male rats 250-300 g (Taconic Laboratories) were subjected to transient middle cerebral artery occlusion (tMCAo) as previously published. (Connolly, et al., Neurosurgery 38 (3), 523-531; discussion 532 (1996); Komotar, et al., Nat Protoc 2 (10), 2345-2347 (2007)). Brains were harvested and processed for western blotting or immunohistochemistry as described below. For mouse neurofunctional analysis, a 28 point neurological functional exam was performed as previously described. (Clark, et al., Neurol Res 19 (6), 641-648 (1997)). Additionally, single mice were placed in a fresh cage at each time point (Pre-stroke, 24 hr reperfusion, 7 days reperfusion) short videos (3 min at each time point) were recorded of each mouse's representative spontaneous activity to illustrate motor deficits in the mouse stroke model.
Intranasal Delivery of Pen1-XBIR3. While under isofluorane anesthesia and lying on their backs, Pen1-XBIR3 (36.8 μM) was delivered to rats by administering 6 μl drops to alternating nares every two minutes for 20 minutes (60 μl total delivered). (Thorne, et al., Neuroscience 127 (2), 481-496 (2004)). Intranasal treatment was done prior to induction of stroke. Saline was used as a negative control. Brains were harvested for immunohistochemistry or western blotting.
Immunohistochemistry (IHC), Cell Process Quantification, and Statistical Analysis. Rats and mice were euthanized, perfused with heparin followed by fixation with 4% paraform-aldehyde. Sections were blocked for 1 hr with 10% normal goat serum/1% BSA, incubated with primary antibody overnight at 4° C., washed with PBS-Triton-X100 (0.1%), incubated with the species appropriate Alexa Fluor-conjugated secondary antibody (Invitrogen) for 2 hr at RT. Slides were also stained with Hoechst 33342 for 15 min at RT (1 μg/ml, Invitrogen) or with NeuroTrace fluorescent Nissl stain (1:300, Invitrogen) for 30 min to stain for nuclei. Human samples were additionally treated with Sudan Black (1% in 70% EtOH) for 5 min at RT and washed with 3 changes of PBS (3 min each). For detection of fluorescent staining, sections were imaged with an upright Nikon fluorescent microscope using a SPOT digital camera and with a Perkin-Elmer Spinning Disc Confocal Imaging System. Quantification of neurons and axons was accomplished using the Cell Counter plug-in for ImageJ (NIH). For quantification in the rat brain, 20x magnification images were acquired from the dorsal motor cortex and the […] somatosensory cortex forelimb region; both regions are contained are within the infarct penumbra (FIG. 1A). Single blind counts of processes or neurons were made in both regions of interest and then pooled for each individual animal. Three animals were used per cohort. For mouse brains, 20× magnification images were taken in the S1 somato-sensory cortex forelimb region and similar counts were made as described below. Counts were made for NF-L/MAP-2 positive processes and NeuN positive cell bodies. Comparisons between groups used the student's t test, p-value: 0.05.

Substance: Pen1-XBIR3: BIR3 domain from XIAP, a specific caspase-9 inhibitor, disulfide-linked to Penetratin1 cell transduction peptide (SEQ ID NO: 10)
- neuronal death / survival [1]: abrogated death
- MAP-2 positive processes (dendrites) (rats subjected to tMCAo; 12 hpr, n=3): 162.0±19.22
- NF-L positive axons (rats subjected to tMCAo; 12 hpr, n=3): 179.7±14.89
- NeuN positive cells (rats subjected to tMCAo; 12 hpr, n=3): 477.3±28.95
- MAP-2 positive processes (dendrites) (rats subjected to tMCAo; 24 hpr, n=3): 138.3±6.766
- NeuN positive cells (rats subjected to tMCAo; 24 hpr, n=3): 453.7±25.44
- NeuN positive cells (rats subjected to tMCAo; 24 hpr, n=3, listed as Pent-XBIR3): significant protection against neuron loss
